Experimental data published in the NIST ThermoML archive (doi:10.1021/je300526w).

Experiment: xn = mol fraction of the nth substance listed
Conditions: Liquid, Vibrating tube method

CCCCCCCCCCCCCCCCCC [octadecane] + CCCCCCCCCC
mass density [kg/m3]
Conditions	1000 kPa	2000 kPa	3000 kPa	4000 kPa	5000 kPa	6000 kPa	7000 kPa	8000 kPa	9000 kPa	10000 kPa
295.1 K, x2 = 0.5	759.7	760.4	761.1	761.7	762.4	763.1	763.7	764.4	765.1	765.8
295.2 K, x2 = 0.75	745.7	746.4	747.1	747.9	748.6	749.3	750	750.7	751.4	752.1
295.8 K, x2 = 0.9	733.9	734.7	735.4	736.2	736.9	737.6	738.4	739.1	739.9	740.6
